Like-named read-outs stand apart in the source and are kept apart here.
Assays:
muscarinic receptor M2 = target: T1, muscarinic receptor M2 (Homo sapiens, UniProt P08172); experiment: Muscarinic receptor subtype M2 binding assay, radioligand displacement
T1 construct: expressed in transfected cells
T1 sequence (P08172 1-466): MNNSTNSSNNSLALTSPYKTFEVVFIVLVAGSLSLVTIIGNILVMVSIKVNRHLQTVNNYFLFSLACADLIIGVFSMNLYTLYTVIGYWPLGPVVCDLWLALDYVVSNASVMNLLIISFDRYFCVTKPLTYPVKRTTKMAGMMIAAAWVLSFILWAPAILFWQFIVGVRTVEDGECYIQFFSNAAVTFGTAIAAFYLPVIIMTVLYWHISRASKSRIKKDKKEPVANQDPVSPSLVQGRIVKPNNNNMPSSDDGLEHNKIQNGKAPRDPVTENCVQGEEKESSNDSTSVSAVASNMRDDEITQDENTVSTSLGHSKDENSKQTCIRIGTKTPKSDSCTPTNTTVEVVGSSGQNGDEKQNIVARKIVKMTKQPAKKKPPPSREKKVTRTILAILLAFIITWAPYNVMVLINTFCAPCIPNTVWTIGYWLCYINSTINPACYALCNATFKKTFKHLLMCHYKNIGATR
Experimental: (§1) Muscarinic receptor subtype M1-M5 binding assays were carried out. Briefly, [3]H-methylscopolamine was allowed to bind to membranes from various recombinant mammalian cell lines, each with an over-expression of a particular receptor subtype.
(§2) Muscarinic receptor subtype M1-M5 binding assays were performed.

muscarinic receptor M5 = target: T2, muscarinic receptor M5 (Homo sapiens, UniProt P08912); experiment: Muscarinic receptor subtype M5 binding assay, radioligand displacement; conditions: Ki values, receptor subtype M5, [3]H-methylscopolamine displacement, membranes from recombinant mammalian cell lines
T2 construct: expressed in transfected cells
T2 sequence (P08912 1-532): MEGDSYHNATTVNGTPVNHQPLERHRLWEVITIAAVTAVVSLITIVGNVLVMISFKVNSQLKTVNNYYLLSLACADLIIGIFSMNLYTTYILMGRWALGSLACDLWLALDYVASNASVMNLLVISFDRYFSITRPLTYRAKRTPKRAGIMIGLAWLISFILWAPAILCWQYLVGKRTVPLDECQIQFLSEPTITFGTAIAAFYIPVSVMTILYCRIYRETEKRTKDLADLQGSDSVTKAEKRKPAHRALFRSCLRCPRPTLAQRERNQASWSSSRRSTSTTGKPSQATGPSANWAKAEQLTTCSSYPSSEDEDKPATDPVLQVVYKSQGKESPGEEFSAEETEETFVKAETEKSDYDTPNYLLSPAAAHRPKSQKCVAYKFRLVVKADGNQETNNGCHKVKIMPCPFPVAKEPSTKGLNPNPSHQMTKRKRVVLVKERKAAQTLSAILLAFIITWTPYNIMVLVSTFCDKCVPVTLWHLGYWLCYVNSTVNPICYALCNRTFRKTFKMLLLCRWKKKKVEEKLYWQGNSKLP
Experimental: as §1, §2

[1] = Pharmacokinetics of inhaled quaternary ammonium salts, plasma levels; format: in vivo, Balb/c mice
Experimental: Blood samples were taken from the mice in example II via cardiac puncture under isoflurane anesthesia at 2.5 minutes, 10 minutes, 30 minutes, 2 hours, 4 hours, 8 hours, or 12 hours after aerosol drug treatment.
The samples were collected in tubes containing EDTA and centrifuged at 12000×g for four minutes. Plasma was removed and stored at −70° C. until assay.
Plasma samples were extracted via a liquid/liquid extraction technique. […] Chromatographically, the analyte and the internal standard were resolved on a Phenomenex Phenyl-Hexyl column using an isocratic elution. The limit of quantitation was 24 pg/ml.

[2] = test system: methacholine-induced bronchoconstriction in Balb/c mice; experiment: Bronchodilatory effect of inhaled compounds, Example II (10 min to 48 h)
Experimental: Female BALB/c mice, weight range 19-22 g, were obtained from Charles River Laboratories (Kingston, N.C.). They received food and water ad libitum.
Compounds for aerosol administration were prepared in sterile Dulbecco's Phosphate Buffered Saline.
Mice were placed in a carousel-style, nose only, exposure chamber and allowed to inhale aerosols for five minutes, using an ICN SPAG-2 nebulizer.
Bronchoconstriction was induced in mice by administration of an 80 mg/ml methacholine (MC) aerosol into the plethysmograph chambers for 5 minutes. […] The average enhanced pause (lung resistance) was determined. In order to determine the baseline, saline aerosol (without methacholine) was also separately administered to the mice.

muscarinic receptor M3 = target: T3, muscarinic receptor M3 (Homo sapiens, UniProt P20309); experiment: Muscarinic receptor subtype M3 binding assay, radioligand displacement; conditions: Ki values, receptor subtype M3
T3 construct: expressed in transfected cells
Experimental: as §1, §2

muscarinic receptor M4 = target: T4, muscarinic receptor M4 (Homo sapiens, UniProt P08173); experiment: Muscarinic receptor subtype M4 binding assay, radioligand displacement
T4 construct: expressed in transfected cells
T4 sequence (P08173 1-479): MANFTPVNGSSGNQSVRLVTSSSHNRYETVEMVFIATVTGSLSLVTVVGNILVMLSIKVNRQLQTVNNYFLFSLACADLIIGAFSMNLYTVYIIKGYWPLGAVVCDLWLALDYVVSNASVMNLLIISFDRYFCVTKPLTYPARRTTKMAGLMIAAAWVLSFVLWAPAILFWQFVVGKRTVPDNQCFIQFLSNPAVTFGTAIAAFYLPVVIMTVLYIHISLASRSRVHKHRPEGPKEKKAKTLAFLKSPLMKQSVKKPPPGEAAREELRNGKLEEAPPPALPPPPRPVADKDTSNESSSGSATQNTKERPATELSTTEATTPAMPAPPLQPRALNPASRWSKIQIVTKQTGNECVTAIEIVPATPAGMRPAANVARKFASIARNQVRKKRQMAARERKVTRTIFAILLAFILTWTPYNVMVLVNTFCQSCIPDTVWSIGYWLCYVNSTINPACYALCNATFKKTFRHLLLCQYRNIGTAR
Experimental: as §1, §2

muscarinic receptor M1 = target: T5, muscarinic receptor M1 (Homo sapiens, UniProt P11229); experiment: Muscarinic receptor subtype M1 binding assay, radioligand displacement
T5 construct: expressed in transfected cells
T5 sequence (P11229 1-460): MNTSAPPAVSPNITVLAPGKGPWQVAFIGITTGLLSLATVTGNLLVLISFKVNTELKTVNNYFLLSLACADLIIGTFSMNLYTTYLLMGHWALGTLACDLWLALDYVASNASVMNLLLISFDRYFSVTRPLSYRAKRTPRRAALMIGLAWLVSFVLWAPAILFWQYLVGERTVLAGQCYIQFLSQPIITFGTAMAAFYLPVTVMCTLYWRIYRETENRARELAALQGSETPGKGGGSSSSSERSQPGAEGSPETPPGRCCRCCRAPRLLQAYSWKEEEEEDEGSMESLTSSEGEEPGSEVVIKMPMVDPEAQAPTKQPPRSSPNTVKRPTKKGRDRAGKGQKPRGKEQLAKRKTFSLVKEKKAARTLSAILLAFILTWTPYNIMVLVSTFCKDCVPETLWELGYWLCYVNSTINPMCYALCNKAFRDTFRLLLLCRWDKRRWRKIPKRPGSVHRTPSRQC
Experimental: as §1, §2

[3] = Balb/c, mouse, plasma, inhaled, inhalation of 0.072 mg/ml, read-out: Plasma concentration ± std dev
[4] = Balb/c, mouse, plasma, inhaled, inhalation of 0.144 mg/ml, read-out: Plasma concentration ± std dev
[5] = Balb/c, mouse, plasma, inhaled, inhalation of 1.44 mg/ml, read-out: Plasma concentration ± std dev

T3 sequence (P20309 whole entry): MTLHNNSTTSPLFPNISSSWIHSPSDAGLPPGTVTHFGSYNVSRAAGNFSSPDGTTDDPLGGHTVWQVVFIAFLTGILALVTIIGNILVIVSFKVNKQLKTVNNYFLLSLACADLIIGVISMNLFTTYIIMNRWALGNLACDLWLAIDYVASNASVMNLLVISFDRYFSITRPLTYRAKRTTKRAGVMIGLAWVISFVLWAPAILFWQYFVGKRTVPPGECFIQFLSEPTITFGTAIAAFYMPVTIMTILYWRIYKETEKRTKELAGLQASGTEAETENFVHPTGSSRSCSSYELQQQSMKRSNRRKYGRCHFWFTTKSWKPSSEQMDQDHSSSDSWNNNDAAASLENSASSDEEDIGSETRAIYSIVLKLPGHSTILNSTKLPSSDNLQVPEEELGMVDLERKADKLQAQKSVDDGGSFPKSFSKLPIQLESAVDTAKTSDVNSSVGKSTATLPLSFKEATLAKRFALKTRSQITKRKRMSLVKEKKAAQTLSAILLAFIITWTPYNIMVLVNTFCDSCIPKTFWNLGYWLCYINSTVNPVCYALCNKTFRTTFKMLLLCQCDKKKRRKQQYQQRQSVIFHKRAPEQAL

SMILES: Cc1ccc(O)c([C@H](CC[N+](C)(C(C)C)C(C)C)c2ccccc2)c1.[I-] [Example 2]
- Ki (muscarinic receptor M2): 0.45 nM
- Ki (muscarinic receptor M5): 0.25 nM
- concentration at 2.5 min [1, 3]: 0.136 ± 0.038 ng/mL
- concentration at 10 min [1, 3]: 0.09 ± 0.001 ng/mL
- concentration at 30 min [1, 3]: 0.081 ± 0.008 ng/mL
- concentration at 2 h [1, 3]: 0.041 ± 0.006 ng/mL
- concentration at 4 h [1, 3]: 0.014 ± 0.001 ng/mL
- concentration at 2.5 min [1, 4]: 0.264 ± 0.021 ng/mL
- concentration at 10 min [1, 4]: 0.162 ± 0.011 ng/mL
- concentration at 30 min [1, 4]: 0.112 ± 0.01 ng/mL
- concentration at 2 h [1, 4]: 0.055 ± 0.007 ng/mL
- concentration at 4 h [1, 4]: 0.04 ± 0.003 ng/mL
- concentration at 8 h [1, 4]: 0.012 ± 0.001 ng/mL
- concentration at 2.5 min [1, 5]: 2.68 ± 0.389 ng/mL
- concentration at 10 min [1, 5]: 1.4 ± 0.163 ng/mL
- concentration at 30 min [1, 5]: 1.12 ± 0.042 ng/mL
- concentration at 2 h [1, 5]: 0.245 ± 0.003 ng/mL
- concentration at 4 h [1, 5]: 0.157 ± 0.002 ng/mL
- concentration at 8 h [1, 5]: 0.08 ± 0.002 ng/mL
- concentration at 12 h ([1]; Balb/c, mouse, plasma, inhaled, inhalation of 1.44 mg/ml, 12 h, read-out: Plasma concentration ± std dev): 0.042 ± 0.002 ng/mL
- systemic (plasma) exposure ([1]; after aerosol inhalation of 0.072-1.44 mg/ml): very low
- prevention of methacholine-induced bronchoconstriction, time following administration ([2]; inhalation of aerosol from 0.072 mg/ml solution, FIG. 3): 8 h
- prevention of methacholine-induced bronchoconstriction, time following administration ([2]; inhalation of aerosol from 0.144 mg/ml solution, FIG. 2): 24 h
- complete block of methacholine-induced bronchoconstriction, time following administration ([2]; inhalation of aerosol from 1.44 mg/ml solution, FIG. 1): 36 h
- Ki (muscarinic receptor M3): 0.2 nM
- Ki (muscarinic receptor M4): 0.39 nM
- Ki (muscarinic receptor M1): 0.33 nM

Source: US6890920B2, “Quaternary ammonium compounds” (Pharmacia & Upjohn Company, priority 1992, dated 2005)
